According to patent US20250066419A1 (priority 2021, published 2025):

Substance: FITC-linker-YGRRARRRRRRIYSIKDTKLGN-biotin [CTP-SEB2]
- penetration of peptide into MoDCs (MoDCs): penetrated MoDCs much more
- peptide permeability in DCs (peptide-FITC in CD11c+ CD80+ population) (dendritic cells): permeated a large amount of peptide
- permeability effect (degree of fluorescent labeling of cells) (BMDCs): permeability effect is greater
